The values that follow come from ChEMBL document CHEMBL3045089, “Synthesis, spectral studies, antimicrobial and insect antifeedant activities of some substituted styryl 4-fluorophenyl ketones” (2011).

The source made the active and inactive calls. No cut-off for these calls is given here.

The test system of test [1] is Proteus vulgaris. The test is described as follows: Antibacterial activity against Proteus vulgaris assessed as inhibition zone at 250 ug/ml measured after 24 to 45 hrs by disk diffusion method. It is filed as functional. Background: In agar diffusion tests the substance spreads into inoculated agar from a disc or well.
For test [2], the system named is Achaea janata. In words: Antifeedant activity against fourth instar larvae of Achaea janata L. on Riclmus cammunls leaves assessed as number of leaf discs consumed in 24 hrs at 200 ppm at 26 +/- 1 degC. Format: functional.
Test [3] has as its system Enterococcus faecalis. The test is described as follows: Antibacterial activity against Enterococcus faecalis assessed as inhibition zone at 250 ug/ml measured after 24 to 45 hrs by disk diffusion method. Format: functional.
For test [4], the system named is Klebsiella. The test is described as follows: Antibacterial activity against Klebsiella species assessed as inhibition zone at 250 ug/ml measured after 24 to 45 hrs by disk diffusion method. Format: functional.
Test [5] relates to Escherichia coli. In words: Antibacterial activity against Escherichia coli assessed as inhibition zone at 250 ug/ml measured after 24 to 45 hrs by disk diffusion method. It is filed as functional.
Test [6] has as its system Pseudomonas. The test is described as follows: Antibacterial activity against Pseudomonas assessed as inhibition zone at 250 ug/ml measured after 24 to 45 hrs by disk diffusion method. Format: functional.
The test system of test [7] is Staphylococcus aureus. In words: Antibacterial activity against Staphylococcus aureus assessed as inhibition zone at 250 ug/ml measured after 24 to 45 hrs by disk diffusion method. It is filed as functional.
Test [8] has as its system Aspergillus niger. In words: Antifungal activity against Aspergillus niger assessed as inhibition zone at 50 ug/ml measured after 72 hrs by drug dilution method. It is filed as functional, organism-based.
For test [9], the system named is Penicillium. In words: Antifungal activity against Penicillium assessed as inhibition zone at 50 ug/ml measured after 72 hrs by drug dilution method. It is filed as functional, organism-based.
For test [10], the system named is Candida albicans. In words: Antifungal activity against Candida albicans assessed as inhibition zone at 250 ug/ml measured after 72 hrs by disk diffusion method. Format: functional, organism-based.
The test system of test [11] is Achaea janata. In words: Antifeedant activity against fourth instar larvae of Achaea janata L. on Riclmus cammunls leaves assessed as number of leaf discs consumed in 24 hrs at 50 ppm at 26 +/- 1 degC. It is filed as functional.
Test [12] concerns Achaea janata. The test is described as follows: Antifeedant activity against fourth instar larvae of Achaea janata L. on Riclmus cammunls leaves assessed as number of leaf discs consumed in 24 hrs at 100 ppm at 26 +/- 1 degC. Format: functional.
The subject of test [13] is Achaea janata. The test is described as follows: Antifeedant activity against fourth instar larvae of Achaea janata L. on Riclmus cammunls leaves assessed as number of leaf discs consumed in 24 hrs at 150 ppm at 26 +/- 1 degC. It is filed as functional.

On to `Cc1ccc(/C=C/C(=O)c2ccc(F)cc2)cc1`, for which the Activity in test [1] was determined as 8 mm; in [2] it was 9; in test [4] it was 8 mm; in test [5] it was 8 mm; in [6], 8 mm; in [7] it was 13 mm. For the same molecule, the outcome in test [3] and in test [8] was inactive.

As to `O=C(/C=C/c1cccc([N+](=O)[O-])c1)c1ccc(F)cc1`, the Activity was found to be 13 mm in [1]; 10 in test [2]; 13 mm in test [4]; 13 mm in [5]; 13 mm in [6]; 13 mm in [7]. Further, the result in test [9], in test [3], in [8] and in [10] was inactive.

As to `O=C(/C=C/c1ccccc1[N+](=O)[O-])c1ccc(F)cc1`, the Activity in test [1] amounted to 13 mm; in test [2], 12; in test [4] it was 13 mm; in test [5], 13 mm; in [6], 13 mm; in test [7], 13 mm. In addition, the result in test [9], in test [3], in test [8] and in [10] was inactive.

For the molecule `O=C(/C=C/c1ccccc1)c1ccc(F)cc1`, the Activity stood at 8 mm in [1]; 8 in test [2]; 8 mm in test [4]; 8 mm in [5]; 8 mm in [6]; 13 mm in test [7]. In addition, the outcome in [9], in test [3], in test [8] and in [10] was inactive.

Turning to `O=C(/C=C/c1cccc(Cl)c1)c1ccc(F)cc1`, the Activity in test [1] came out at 13 mm; in [2], 0.4; in test [4], 13 mm; in test [5], 13 mm; in test [6], 13 mm; in [7], 13 mm. The result in test [3] and in [10] was inactive.

In the case of `O=C(/C=C/c1ccc(Cl)cc1)c1ccc(F)cc1`, the Activity came out at 13 mm in test [1]; 0.1 in [2]; 0.1 in [11]; 13 mm in [4]; 0.05 in test [12]; 13 mm in test [5]. The values for the Activity in test [6], in test [7] and in [13] were 13 mm, 13 mm and 0, respectively. The outcome in test [9], in test [3] and in test [8] was inactive.

Take `O=C(/C=C/c1ccc(Br)cc1)c1ccc(F)cc1`: the Activity was 13 mm in test [1]; 0.5 in [2]; 20 mm in test [3]; 20 mm in test [4]; 20 mm in test [5]; 13 mm in test [6]. Also, in test [7], the Activity worked out at 20 mm. Also, the inhibition entry in [9], in test [8] and in [10] was “Active” each time.

Take `COc1ccc(/C=C/C(=O)c2ccc(F)cc2)cc1`: the Activity came out at 13 mm in test [1]; 9 in test [2]; 20 mm in test [3]; 13 mm in test [4]; 13 mm in test [5]; 13 mm in test [6]. The Activity in test [7] is reported as 13 mm. Besides, the inhibition entry in test [9] and in [10] was “Active” throughout.

With `CN(C)c1ccc(/C=C/C(=O)c2ccc(F)cc2)cc1`, the Activity came to 13 mm in test [1]; 9 in test [2]; 13 mm in [4]; 20 mm in [5]; 20 mm in test [6]; 20 mm in test [7]. Moreover, the inhibition result in test [9] and in test [8] was “Active” in each case. For the same molecule, the outcome in test [3] was inactive.
